Source: patent US20150273069A1, “FATTY ACID ACYLATED AMINO ACIDS FOR ORAL PEPTIDE DELIVERY” (NOVO NORDISK A/S, priority 2012, published 2015)

Assays:
Caco-2 cell monolayers = experiment: Transport of semaglutide across Caco-2 cell monolayers in the presence of fatty acid acylated amino acids; format: in vitro ADME; conditions: for permeation enhancing effect: on semaglutide across Caco-2 monolayers, compared among the fatty acid acylated amino acids tested; for Papp: permeation of semaglutide (100 μM), apical to basolateral, with 0.5 mM fatty acid acylated amino acid, pH 7.4
Description: (§1) Caco-2 cells were obtained from the American Type Culture Collection (Manassas, Va.). Cells were seeded in culturing flasks and passaged in Dulbecco's Modified Eagle′ medium supplemented with 10% fetal bovine serum, 1% penicillin/streptomycin (100 U/ml and 100 μg/ml, respectively), 1% L-glutamine and 1% nonessential amino acids. Caco-2 cells were seeded onto tissue culture treated polycarbonate filters in 12-well Transwell® plates (1.13 cm2, 0.4 μm pore size) at a density of 10^5 cells/well. Monolayers were grown in an atmosphere of 5% CO2-95% O2 at 37° C. Growth media were replaced every other day. The experiment was performed on day 10-14 after seeding of Caco-2 cells.
(§2) The amount of compound transported from the donor chamber (apical side) to the receiver chamber (basolateral side) was measured. The transport study was initiated by adding 400 μl solution (100 μM of semaglutide+0.5 mM fatty acid acylated amino acids) and 0.4 μCi/μl [3H]manntiol in transport buffer to the donor chamber and 1000 μl transport buffer to the receiver chamber. The transport buffer consisted of Hank's balanced saline solution containing 10 mM HEPES, […] to pH 7.4 after addition of compounds. The transport of [^3H]mannitol, a marker for paracellular transport, was measured to verify the integrity of the epithelium.
(§3) Before the experiment, the Caco-2 cells were equilibrated for 60 min with transport buffer on both sides of the epithelium. Buffer was then removed and the experiment initiated. Donor samples (20 μl) were taken at 0 min and at the end of the experiment. Receiver samples (200 μl) were taken every 15 min. The study was performed in an atmosphere of 5% CO2-95% O2 at 37° C. on a shaking plate (30 rpm).
(§4) In all samples with semaglutide and mannitol, the concentration was determined using a LOCI assay and scintillation counter, respectively.
(§5) Before and during the experiment the transepithelial electrical resistance (TEER) of the cell monolayers was monitored. In selected experiments, the transport buffer were changed to culturing medium after end of experiment and the TEER measured 24 h after experiment. The TEER was measured with EVOM™ Epithelial Voltohmmeter connected to Chopsticks.

[1] = as above; format: in vitro ADME; conditions: human, Caco-2; permeation of semaglutide (100 μM), apical to basolateral, permeation enhancer: None, pH 7.4
Description: as §1, §2, §3, §4, §5

Compound | permeation enhancing effect (Caco-2 cell monolayers) | Papp (Caco-2 cell monolayers) | Papp A→B at 100 μM [1]
CCCCCCCCCC(=O)N[C@@H](CC(N)=O)C(=O)[O-].[Na+] [Sodium N-decanoyl L-asparaginate] | – | 0.31 10^−8 cm/s | –
CCCCCCCCCCCC(=O)N[C@@H](CC(C)C)C(=O)[O-].[Na+] [Sodium N-dodecanoyl L-leucinate] | – | 2.53 10^−8 cm/s | –
CCCCCCCCCCCC(=O)N[C@@H](Cc1ccccc1)C(=O)[O-].[Na+] [Sodium N-dodecanoyl L-phenylalaninate] | – | 5.60 10^−8 cm/s | –
CCCCCCCCCCCCCC(=O)N[C@@H](CC(C)C)C(=O)[O-].[Na+] [Sodium N-myristoyl L-leucinate] | greatest effect | 63.88 10^−8 cm/s | –
CCCCCCCCCC(=O)N[C@@H](CC(C)C)C(=O)[O-].[Na+] [Sodium N-decanoyl L-leucinate] | – | 2.12 10^−8 cm/s | –

Next, values leading:

permeation enhancing effect (Caco-2 cell monolayers) | Papp (Caco-2 cell monolayers) | Papp A→B at 100 μM [1] | Compound
greatest effect | 78.83 10^−8 cm/s | – | CCCCCCCCCCCCCC(=O)N[C@H](C(=O)[O-])C(C)C.[Na+] [Sodium N-myristoyl L-valinate]
– | – | 0.0065 ×10⁻⁶ cm/s | CC[C@H](C)[C@H](NC(=O)[C@H](Cc1ccccc1)NC(=O)[C@H](CCC(=O)O)NC(=O)[C@H](CCCCNC(=O)COCCOCCNC(=O)COCCOCCNC(=O)CC[C@H](NC(=O)CCCCCCCCCCCCCCCCC(=O)O)C(=O)O)NC(=O)[C@H](C)NC(=O)[C@H](C)NC(=O)[C@H](CCC(N)=O)NC(=O)CNC(=O)[C@H](CCC(=O)O)NC(=O)[C@H](CC(C)C)NC(=O)[C@H](Cc1ccc(O)cc1)NC(=O)[C@H](CO)NC(=O)[C@H](CO)NC(=O)[C@@H](NC(=O)[C@H](CC(=O)O)NC(=O)[C@H](CO)NC(=O)[C@@H](NC(=O)[C@H](Cc1ccccc1)NC(=O)[C@@H](NC(=O)CNC(=O)[C@H](CCC(=O)O)NC(=O)C(C)(C)NC(=O)[C@@H](N)Cc1cnc[nH]1)[C@@H](C)O)[C@@H](C)O)C(C)C)C(=O)N[C@@H](C)C(=O)N[C@@H](Cc1c[nH]c2ccccc12)C(=O)N[C@@H](CC(C)C)C(=O)N[C@H](C(=O)N[C@@H](CCCNC(=N)N)C(=O)NCC(=O)N[C@@H](CCCNC(=N)N)C(=O)NCC(=O)O)C(C)C [semaglutide, N-epsilon26-[2-(2-{2-[2-(2-{2-[(S)-4-carboxy-4-(17-carboxyheptadecanoylamino)butyrylamino]ethoxy}ethoxy)acetylamino]ethoxy}ethoxy)acetyl][Aib8,Arg34]GLP-1(7-37), reference compound]
